The text below walks through data of patent US11479536B1 (King Abdulaziz University, priority 2022, dated 2022).

Where “and” joins values, the source holds several entries; their conditions need not be identical. Equal values may be shown once.

One series deals with T1, AMPK (A1/B1/G2) (Homo sapiens, UniProt Q13131+Q9UGJ0+Q9Y478).
T1 construct: This system includes a recombinant full-length human AMPK enzyme; purchased Promega
As to the kind of experiment: Cell-free AMPK inhibition assay, AMPK (A1/B1/G2) Kinase Enzyme system. In kind it is biochemical. Conditions: recombinant full-length human AMPK. The protocol: The inhibitory effect of serial concentrations of MAK compounds on AMPK Kinase activity was investigated using the highly sensitive AMPK (A1/B1/G2) Kinase Enzyme assay system (Promega, Madison Wis. USA). This system includes a recombinant full-length human AMPK enzyme and a substrate for the enzyme. The experiment was conducted according to the manufacturer's instructions in the provided protocol. Mean values of replicates were calculated in comparison to the control group.

Series [1] concerns MCF7 spheroids. As to the kind of experiment: Cytotoxicity assay (MTT) in spheroid culture, MCF7. In kind it is cell-based, human. As to the method:
(§1) 1×10^4 cells of each cell line (MCF7 and T47D) were seeded into ultra-low attachment 96 well plate at 37° C. and grown for 48 hours in DMEM media to result in the formation of spheroids. Then, the cells were subjected to the different treatment conditions before performing the assays.
(§2) The cytotoxic effects of MAK compounds were assessed against MCF7 and T47D cell lines using MTT cell viability assay. The cells were treated for 48 hours with different concentrations of each MAK compound and the control cells were subjected to the vehicle (0.1% DMSO). Then, 10% of 5 mg/mL MTT was added to each well containing treated or control cells, and mixture was incubated at 37° C. for 3 hours. After that, the MTT-containing media was replaced with 100 μL DMSO and incubated for 10 minutes at room temperature before measuring the absorbance for each well at 570 nm. According to the measured absorbance, the IC50 was calculated for each compound. All the experiments were performed in biological and experimental replicates.

Series [2] deals with T47D spheroids. As to the kind of experiment: Cytotoxicity assay (MTT) in spheroid culture, T47D. The class given is cell-based, human. As to the method: as §1, §2
In series [3] the test system is MCF7 spheroids. As to the kind of experiment: Mitochondrial membrane potential assay (JC-1), MCF7 spheroids. In kind it is cell-based, human. Conditions: 48 h post treatment at IC50, control 18.01±0.58%. The protocol:
(§3) The mitochondrial membrane potential was investigated in response to the treatment with MAK compounds. This assay depends on the measurement of the aggregate fluorescence for Tetraethylbenzimidazolylcarbocyanine iodide (JC-1). This cationic dye accumulates in the energized mitochondria, and the increase in aggregate fluorescence indicates mitochondrial […] while the reduction indicates the depolarization state.
(§4) After growing the cells and treating them with MAK compound for 48 hours, 2 μM of JC-1 final concentration was added and the mixture was incubated for 1 hour at 37° C. in presence of 5% CO2. Then, the samples were analyzed using flow cytometry. Mean values and standard deviation of replicates were calculated in comparison to the control group.

Series [4] concerns T47D spheroids. As to the kind of experiment: Mitochondrial membrane potential assay (JC-1), T47D spheroids. Conditions: 48 h post treatment at IC50, control 15.67±2.05%. The class given is cell-based, human. The protocol: as §3, §4
Series [5] concerns MCF7 spheroids. In words: Live and dead assay of tumor spheroids, MCF7. In kind it is cell-based, human. Conditions: 48 h post treatment, control 10.33±2.40%. As to the method: (§5) The Live/Dead assay contains a mixture of two staining fluorescent dyes that label live and dead cells to enable differentiation between them. The cell viability of the cells in response to the treatment with MAK compounds was examined. The cells were grown for 48 hours and treated with MAK compound for additional 48 hours, then Cytox RED solution reagent was added. After incubation at 37° C. under 5% CO2 for 1 hour, the samples were immediately analyzed by flow cytometry. Mean values and standard deviation of replicates were calculated in comparison to the control group.

The subject of series [6] is T47D spheroids. As to the kind of experiment: Live and dead assay of tumor spheroids, T47D. The note with it: 48 h post treatment, control 2.60±0.31%. In kind it is cell-based, human. As to the method: as §5
The subject of series [7] is MCF7 spheroids. In words: Reactive oxygen species (CellROX) assay, MCF7 spheroids. The class given is cell-based, human. The note with it: 48 h treatment, CellROX Green. The protocol: (§6) The CELLROX (Invitrogen) assay was used to measure the level of reactive oxygen species (ROS) in live cells. […] The technique was used to investigate the capability of tested compounds to induce intracellular ROS. After forming the spheroids for 48 hours and treating them for additional 48 hours with MAK compound, spheroids were incubated in culture medium with 500 nM CellROX for 60 minutes at 37° C. in presence of 5% CO2, and the samples were immediately analyzed on flow cytometry using 488-nm excitation for the CellROX® Green.

The test system of series [8] is T47D spheroids. As to the kind of experiment: Reactive oxygen species (CellROX) assay, T47D spheroids. In kind it is cell-based, human. The note with it: 48 h treatment, CellROX Green. The protocol:
as §6

A further series relates to MCF7 cell line. As to the kind of experiment: Cytotoxic assay (MTT) in monolayer model, MCF7. The class given is cell-based. Conditions: Homo sapiens, 48 h, read-out: IC50 MCF-7 cell line inhibition, monolayer. The protocol: (§7) 1×10^6 cells of the human breast cancer cell lines MCF7 and T47D were seeded and grown at 37° C. with 5% CO2, in a Dulbecco's Modified Eagle Medium (DMEM) with 10% fetal bovine serum (Sigma). The cells were maintained until they reached the confluence over 90%. Then, the cells were subjected to the different treatment conditions before performing the assays.
as §2

The test system of the next series is T47D cell line. As to the kind of experiment: Cytotoxic assay (MTT) in monolayer model, T47D. The class given is cell-based. Conditions: Homo sapiens, 48 h, read-out: IC50 cytotoxic assay against T47D, monolayer. The protocol: as §7, §2
Series [9] relates to human skin fibroblasts (HSF). As to the kind of experiment: Cytotoxicity on human skin fibroblasts (SRB method). In kind it is cell-based. Conditions: HSF, SRB, 72 h. The protocol:
In addition to have a good physicochemical profile, it is important for a studied lead to differentiate between cancer cells and highly proliferating non-cancerous cells. Therefore, we assessed compounds MAK-1 and MAK-6 for both the in silico and in vitro physicochemical characteristics as well as for cytotoxic effect on human skin fibroblasts (SKF) cell lines. Cytotoxicity was determined using Sulforhodamine B (SRB) method. Exponentially growing human skin fibroblast cells (Nawah Scientific, Cairo, Egypt) were collected using 0.25% Trypsin-EDTA and were then seeded in 96-well plates at a density of 1000-2000 cells/well in 10% FBS and penicillin/streptomycin supplemented RPMI-1640 medium. After 24 h, cells were treated with different concentrations of test compounds and incubated for 72 h at 37° C. in a humidified atmosphere containing 5% CO2. Next, the cells were fixed by adding trichloroacetic acid (TCA, 10% final conc. in wells) directly to the wells and incubated for 1 h at 4° C., then cells were washed with distilled water 5 times to remove excess TCA, media, serum proteins, and metabolites, followed by air drying. After that, the fixed cells were stained with 0.4% SRB dissolved in 1% acetic acid for 10 min at room temperature, and excess stain was removed by quickly rinsing with 1% acetic acid. The residual acetic acid was removed completely by air drying the plates for 24 h, and the dye was solubilized with Tris buffer (pH=7.4, 10 mM) for 5 min on a shaker at 1600 rpm. The optical density (OD) of each well was measured spectrophotometrically at 564 nm with an ELISA microplate reader (ChroMate-4300, FL, USA). The IC50 values were calculated according to the equation for Boltzman sigmoidal concentration—response curve using the nonlinear regression fitting models (Graph Pad, Prism Version 5).

The next series concerns MCF7 cell lines. As to the kind of experiment: Cytotoxic assays of KAC-12 on breast cancer MCF7 cell lines. In kind it is cell-based, human.
A further series relates to AMPK (phospho-protein). Conditions: concentration not given; cited from earlier work.

T1 sequence (Q13131 whole entry): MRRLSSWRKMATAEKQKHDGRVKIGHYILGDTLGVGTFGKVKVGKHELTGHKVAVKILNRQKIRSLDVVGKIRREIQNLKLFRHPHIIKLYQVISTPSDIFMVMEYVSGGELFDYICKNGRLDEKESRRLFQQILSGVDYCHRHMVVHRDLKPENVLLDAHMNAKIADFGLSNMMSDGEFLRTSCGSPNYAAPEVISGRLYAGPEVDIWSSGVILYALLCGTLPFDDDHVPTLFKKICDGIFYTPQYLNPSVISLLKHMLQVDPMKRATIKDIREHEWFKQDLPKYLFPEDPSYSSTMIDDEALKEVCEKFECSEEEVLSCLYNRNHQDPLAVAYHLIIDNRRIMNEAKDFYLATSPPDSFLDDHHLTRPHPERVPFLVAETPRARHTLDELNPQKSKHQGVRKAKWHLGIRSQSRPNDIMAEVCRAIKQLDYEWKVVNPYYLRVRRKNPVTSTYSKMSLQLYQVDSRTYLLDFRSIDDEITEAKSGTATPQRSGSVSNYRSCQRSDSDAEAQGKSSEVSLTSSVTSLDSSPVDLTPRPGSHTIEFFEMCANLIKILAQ
T1 sequence (Q9Y478 whole entry partner): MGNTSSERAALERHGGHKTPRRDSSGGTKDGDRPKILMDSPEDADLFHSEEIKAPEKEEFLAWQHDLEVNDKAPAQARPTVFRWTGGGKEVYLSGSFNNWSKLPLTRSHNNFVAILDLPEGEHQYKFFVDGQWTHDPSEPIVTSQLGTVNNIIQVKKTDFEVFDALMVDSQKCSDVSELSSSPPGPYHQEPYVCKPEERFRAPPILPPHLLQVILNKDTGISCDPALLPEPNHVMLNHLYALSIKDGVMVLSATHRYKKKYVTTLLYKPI
T1 sequence (Q9UGJ0 whole entry partner): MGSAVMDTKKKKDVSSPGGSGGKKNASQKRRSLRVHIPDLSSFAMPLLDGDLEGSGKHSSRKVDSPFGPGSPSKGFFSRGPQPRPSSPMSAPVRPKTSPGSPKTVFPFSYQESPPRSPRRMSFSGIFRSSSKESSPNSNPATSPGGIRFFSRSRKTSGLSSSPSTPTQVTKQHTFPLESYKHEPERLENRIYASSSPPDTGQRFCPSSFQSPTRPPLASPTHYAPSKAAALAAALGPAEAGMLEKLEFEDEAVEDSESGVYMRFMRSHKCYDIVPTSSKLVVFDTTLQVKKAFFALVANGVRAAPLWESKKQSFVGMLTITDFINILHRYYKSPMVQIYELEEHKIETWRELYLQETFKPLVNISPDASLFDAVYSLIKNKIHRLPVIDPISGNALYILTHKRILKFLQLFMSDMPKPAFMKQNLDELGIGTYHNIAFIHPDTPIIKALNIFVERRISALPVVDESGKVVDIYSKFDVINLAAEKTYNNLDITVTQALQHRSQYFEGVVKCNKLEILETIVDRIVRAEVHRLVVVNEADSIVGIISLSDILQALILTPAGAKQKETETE

Turning to `COc1cccc(C(=O)Nc2cccnc2CC(=O)NCc2ccccc2)c1`, the IC50 on AMPK (A1/B1/G2) was found to be 5.8 nM; in the series with MCF7 spheroids [1] (Homo sapiens, MCF7, 3D spheroid model, 48 h, MTT) it was 19600 ± 525 nM; with T47D spheroids [2] (Homo sapiens, T47D, 3D spheroid model, 48 h, MTT), 3720 ± 30 nM; in the series with MCF7 cell line, 148 nM; with T47D cell line, 97 nM. The “reduction of spheroid size” value in the series with MCF7 spheroids [1] (MCF7 spheroids treated at IC50 for 48 h, vs control) is reported as “noticeable reduction”; in the series on T47D spheroids [2] (T47D spheroids treated at IC50 for 48 h, vs control) it was “noticeable reduction”. Besides, the entries for the “depolarized cells (mitochondrial membrane), mean±SEM” value in the series on MCF7 spheroids [3] and in the series on T47D spheroids [4] were 34.00±0.87% and 36.77±0.65%, respectively. The “dead rate (dead cells), mean±SEM” value in the series with MCF7 spheroids [5] was found to be 36.48±0.39%; with T47D spheroids [6], 32.10±0.56%. Moreover, the “ROS level, treatment vs control” value in the series on MCF7 spheroids [7] turned out to be 25%; in the series with T47D spheroids [8] it was 30%. Moreover, the “safety to normal cells (human skin fibroblasts)” value in series [9] is reported as “highly safe”.
Compound `O=C(Cc1ccc(NC(=O)c2cccc(Cl)c2)cc1)NCc1ccccc1` [KAC-12] displayed an IC50 in the series on MCF7 cell lines of 47700 nM. Also, the “downregulation of the activated AMPK signal (phosphoprotein)” value in the series on AMPK (phospho-protein) is 15% and 13%.
In the case of `COc1ccc(C(=O)Nc2ccc(CC(=O)NCc3ccccc3)cc2)cc1OC` [MAK-2, N-(4-(2-(benzylamino)-2-oxoethyl)phenyl)-3,4-dimethoxybenzamide], the melting point was 215 °C. For the same compound, in the series on MCF7 cell line, the IC50 was determined as 6 nM.
Consider `O=C(Cc1ccc(NC(=O)c2cccc(OCCN3CCOCC3)c2)cc1)NCc1ccccc1` [MAK-3, N-(4-(2-(benzylamino)-2-oxoethyl)phenyl)-3-(2-morpholinoethoxy)benzamide], for which the IC50 in the series on T47D cell line is 1 nM.
`COc1ccc(C(=O)Nc2ccc(CC(=O)NCc3ccccc3)cc2)cc1Cl` [MAK-4, N-(4-(2-(benzylamino)-2-oxoethyl)phenyl)-3-chloro-4-methoxybenzamide]: the melting point worked out at 186 °C. Moreover, in the series on MCF7 cell line, the 50% inhibitory concentration (IC50) was 225 nM.
In turn, `O=C(Cc1ccc(NC(=O)c2ccc(OCCN3CCOCC3)c(Cl)c2)cc1)NCc1ccccc1` [MAK-5, N-(4-(2-(benzylamino)-2-oxoethyl)phenyl)-3-chloro-4-(2-morpholinoethoxy)benzamide] displayed a melting point of 147 °C.
`O=C(Cc1ccc(NC(=O)c2cncc(Cl)c2)cc1)NCc1ccccc1` [MAK-9, N-(4-(2-(benzylamino)-2-oxoethyl)phenyl)-5-chloronicotinamide] displayed a melting point of 231 °C.
Compound `O=C(Cc1ccc(NC(=O)c2ccc(Cl)o2)cc1)NCc1ccccc1` [MAK-10, N-(4-(2-(benzylamino)-2-oxoethyl)phenyl)-5-chlorofuran-2-carboxamide] came in with a melting point of 217 °C. For the same compound, the half-maximal inhibitory concentration (IC50) with MCF7 cell line is 225 nM.
